Reference: paper PMC9401487 (Clinical Cancer Research, 2021)

System: patients with advanced solid tumors
Test: Phase I safety and tolerability
Assay type: in vivo, human
[1] = Cohort 5 (N=8), 60 mg QD 7 days + carboplatin
[2] = Cohort 6 (N=7), co-dosing 60 mg QD + carboplatin days 1–3
[3] = Cohort 6: 60 mg QD days 1–3 + carboplatin AUC5 day 1, 7 patients
[4] = Cohort 7 (N=6), co-dosing 40 mg QD + carboplatin days 1 and 2

**Q.** With `C[C@@H]1COCCN1c1cc(C2([S@](C)(=N)=O)CC2)nc(-c2cc[nH]c3nccc2-3)n1` [ceralasertib] as the compound, how does the “TEAE Arthralgia, Grade 1–2” value [1] read?
**A.** 2 (25) patients, n (%)

**Q.** And the “TEAE Arthralgia, Grade ≥3” value [1]?
**A.** 0 patients, n (%)

**Q.** What about the “TEAE Aspartate aminotransferase increased, Grade 1–2” value [1] of the same compound?
**A.** 1 (13) patients, n (%)

**Q.** What about the “TEAE Aspartate aminotransferase increased, Grade ≥3” value [1] of the same compound?
**A.** 1 (13) patients, n (%)

**Q.** What about the “TEAE Constipation, Grade 1–2” value [1] of the same compound?
**A.** 1 (13) patients, n (%)

**Q.** And the “TEAE Constipation, Grade ≥3” value [1]?
**A.** 0 patients, n (%)

**Q.** What about the “TEAE Contusion, Grade 1–2” value [1] of the same compound?
**A.** 0 patients, n (%)

**Q.** And the “TEAE Contusion, Grade ≥3” value [1]?
**A.** 0 patients, n (%)

**Q.** And the “TEAE Cough, Grade 1–2” value [1]?
**A.** 0 patients, n (%)

**Q.** What about the “TEAE Cough, Grade ≥3” value [1] of the same compound?
**A.** 0 patients, n (%)

**Q.** And the “TEAE Decreased appetite, Grade 1–2” value [1]?
**A.** 2 (25) patients, n (%)

**Q.** What about the “TEAE Decreased appetite, Grade ≥3” value [1] of the same compound?
**A.** 0 patients, n (%)

**Q.** What about the “TEAE Diarrhea, Grade 1–2” value [1] of the same compound?
**A.** 1 (13) patients, n (%)

**Q.** What about the “TEAE Diarrhea, Grade ≥3” value [1] of the same compound?
**A.** 0 patients, n (%)

**Q.** And the “TEAE Dizziness, Grade 1–2” value [1]?
**A.** 2 (25) patients, n (%)

**Q.** And the “TEAE Dizziness, Grade ≥3” value [1]?
**A.** 0 patients, n (%)

**Q.** What about the “TEAE Dyspnea, Grade 1–2” value [1] of the same compound?
**A.** 0 patients, n (%)

**Q.** And the “TEAE Dyspnea, Grade ≥3” value [1]?
**A.** 0 patients, n (%)

**Q.** And the “TEAE Fatigue, Grade 1–2” value [1]?
**A.** 3 (38) patients, n (%)

**Q.** And the “TEAE Fatigue, Grade ≥3” value [1]?
**A.** 0 patients, n (%)

**Q.** And the “TEAE Hypocalcemia, Grade 1–2” value [1]?
**A.** 2 (25) patients, n (%)

**Q.** And the “TEAE Hypocalcemia, Grade ≥3” value [1]?
**A.** 0 patients, n (%)

**Q.** And the “TEAE Insomnia, Grade 1–2” value [1]?
**A.** 0 patients, n (%)

**Q.** What about the “TEAE Insomnia, Grade ≥3” value [1] of the same compound?
**A.** 0 patients, n (%)

**Q.** And the “TEAE Lower respiratory tract infection, Grade 1–2” value [1]?
**A.** 1 (13) patients, n (%)

**Q.** And the “TEAE Lower respiratory tract infection, Grade ≥3” value [1]?
**A.** 1 (13) patients, n (%)

**Q.** What about the “TEAE Nausea, Grade 1–2” value [1] of the same compound?
**A.** 4 (50) patients, n (%)

**Q.** And the “TEAE Nausea, Grade ≥3” value [1]?
**A.** 0 patients, n (%)

**Q.** What about the “TEAE Neutropenia, Grade 1–2” value [1] of the same compound?
**A.** 0 patients, n (%)

**Q.** What about the “TEAE Neutropenia, Grade ≥3” value [1] of the same compound?
**A.** 0 patients, n (%)

**Q.** What about the “TEAE Neutrophil count decreased, Grade 1–2” value [1] of the same compound?
**A.** 0 patients, n (%)

**Q.** What about the “TEAE Neutrophil count decreased, Grade ≥3” value [1] of the same compound?
**A.** 1 (13) patients, n (%)

**Q.** What about the “TEAE Platelet count decreased, Grade 1–2” value [1] of the same compound?
**A.** 1 (13) patients, n (%)

**Q.** What about the “TEAE Platelet count decreased, Grade ≥3” value [1] of the same compound?
**A.** 0 patients, n (%)

**Q.** What about the “TEAE Pyrexia, Grade 1–2” value [1] of the same compound?
**A.** 2 (25) patients, n (%)

**Q.** What about the “TEAE Pyrexia, Grade ≥3” value [1] of the same compound?
**A.** 0 patients, n (%)

**Q.** What about the “TEAE Thrombocytopenia, Grade 1–2” value [1] of the same compound?
**A.** 4 (50) patients, n (%)

**Q.** What about the “TEAE Thrombocytopenia, Grade ≥3” value [1] of the same compound?
**A.** 2 (25) patients, n (%)

**Q.** And the “TEAE Upper respiratory tract infection, Grade 1–2” value [1]?
**A.** 0 patients, n (%)

**Q.** What about the “TEAE Upper respiratory tract infection, Grade ≥3” value [1] of the same compound?
**A.** 0 patients, n (%)

**Q.** What about the “TEAE Vomiting, Grade 1–2” value [1] of the same compound?
**A.** 0 patients, n (%)

**Q.** What about the “TEAE Vomiting, Grade ≥3” value [1] of the same compound?
**A.** 0 patients, n (%)

**Q.** And the “TEAE White blood cell count decreased, Grade 1–2” value [1]?
**A.** 0 patients, n (%)

**Q.** What about the “TEAE White blood cell count decreased, Grade ≥3” value [1] of the same compound?
**A.** 1 (13) patients, n (%)

**Q.** And the “TEAE Abdominal pain, Grade 1–2” value [2]?
**A.** 1 (14) patients, n (%)

**Q.** What about the “TEAE Abdominal pain, Grade ≥3” value [2] of the same compound?
**A.** 0 patients, n (%)

**Q.** And the “TEAE Alanine aminotransferase increased, Grade 1–2” value [2]?
**A.** 0 patients, n (%)

**Q.** What about the “TEAE Alanine aminotransferase increased, Grade ≥3” value [2] of the same compound?
**A.** 0 patients, n (%)

**Q.** What about the “TEAE Anemia, Grade 1–2” value [2] of the same compound?
**A.** 2 (29) patients, n (%)

**Q.** What about the “TEAE Anemia, Grade ≥3” value [2] of the same compound?
**A.** 4 (57) patients, n (%)

**Q.** What about the “TEAE Any AE, Grade 1–2” value [2] of the same compound?
**A.** 0 patients, n (%)

**Q.** What about the “TEAE Any AE, Grade ≥3” value [2] of the same compound?
**A.** 7 (100) patients, n (%)

**Q.** And the “TEAE Arthralgia, Grade 1–2” value [2]?
**A.** 0 patients, n (%)

**Q.** What about the “TEAE Arthralgia, Grade ≥3” value [2] of the same compound?
**A.** 0 patients, n (%)

**Q.** What about the “TEAE Aspartate aminotransferase increased, Grade 1–2” value [2] of the same compound?
**A.** 0 patients, n (%)

**Q.** What about the “TEAE Aspartate aminotransferase increased, Grade ≥3” value [2] of the same compound?
**A.** 0 patients, n (%)

**Q.** And the “TEAE Constipation, Grade 1–2” value [2]?
**A.** 1 (14) patients, n (%)

**Q.** What about the “TEAE Constipation, Grade ≥3” value [2] of the same compound?
**A.** 0 patients, n (%)

**Q.** What about the “TEAE Contusion, Grade 1–2” value [2] of the same compound?
**A.** 0 patients, n (%)

**Q.** What about the “TEAE Contusion, Grade ≥3” value [2] of the same compound?
**A.** 0 patients, n (%)

**Q.** And the “TEAE Cough, Grade 1–2” value [2]?
**A.** 0 patients, n (%)

**Q.** And the “TEAE Cough, Grade ≥3” value [2]?
**A.** 0 patients, n (%)

**Q.** And the “TEAE Decreased appetite, Grade 1–2” value [2]?
**A.** 0 patients, n (%)

**Q.** What about the “TEAE Decreased appetite, Grade ≥3” value [2] of the same compound?
**A.** 0 patients, n (%)

**Q.** What about the “TEAE Diarrhea, Grade 1–2” value [2] of the same compound?
**A.** 1 (14) patients, n (%)

**Q.** What about the “TEAE Diarrhea, Grade ≥3” value [2] of the same compound?
**A.** 0 patients, n (%)

**Q.** And the “TEAE Dizziness, Grade 1–2” value [2]?
**A.** 1 (14) patients, n (%)

**Q.** What about the “TEAE Dizziness, Grade ≥3” value [2] of the same compound?
**A.** 0 patients, n (%)

**Q.** What about the “TEAE Dyspnea, Grade 1–2” value [2] of the same compound?
**A.** 1 (14) patients, n (%)

**Q.** And the “TEAE Dyspnea, Grade ≥3” value [2]?
**A.** 0 patients, n (%)

**Q.** What about the “TEAE Fatigue, Grade 1–2” value [2] of the same compound?
**A.** 1 (14) patients, n (%)

**Q.** What about the “TEAE Fatigue, Grade ≥3” value [2] of the same compound?
**A.** 0 patients, n (%)

**Q.** And the “TEAE Hypocalcemia, Grade 1–2” value [2]?
**A.** 1 (14) patients, n (%)

**Q.** And the “TEAE Hypocalcemia, Grade ≥3” value [2]?
**A.** 0 patients, n (%)

**Q.** And the “TEAE Insomnia, Grade 1–2” value [2]?
**A.** 2 (29) patients, n (%)

**Q.** What about the “TEAE Insomnia, Grade ≥3” value [2] of the same compound?
**A.** 0 patients, n (%)

**Q.** What about the “TEAE Lower respiratory tract infection, Grade 1–2” value [2] of the same compound?
**A.** 1 (14) patients, n (%)

**Q.** And the “TEAE Lower respiratory tract infection, Grade ≥3” value [2]?
**A.** 0 patients, n (%)

**Q.** And the “TEAE Nausea, Grade 1–2” value [2]?
**A.** 6 (86) patients, n (%)

**Q.** And the “TEAE Nausea, Grade ≥3” value [2]?
**A.** 1 (14) patients, n (%)

**Q.** What about the “TEAE Neutropenia, Grade 1–2” value [2] of the same compound?
**A.** 1 (14) patients, n (%)

**Q.** And the “TEAE Neutropenia, Grade ≥3” value [2]?
**A.** 5 (71) patients, n (%)

**Q.** What about the “TEAE Neutrophil count decreased, Grade 1–2” value [2] of the same compound?
**A.** 0 patients, n (%)

**Q.** And the “TEAE Neutrophil count decreased, Grade ≥3” value [2]?
**A.** 1 (14) patients, n (%)

**Q.** What about the “TEAE Platelet count decreased, Grade 1–2” value [2] of the same compound?
**A.** 0 patients, n (%)

**Q.** What about the “TEAE Platelet count decreased, Grade ≥3” value [2] of the same compound?
**A.** 0 patients, n (%)

**Q.** What about the “TEAE Pyrexia, Grade 1–2” value [2] of the same compound?
**A.** 1 (14) patients, n (%)

**Q.** And the “TEAE Pyrexia, Grade ≥3” value [2]?
**A.** 0 patients, n (%)

**Q.** And the “TEAE Thrombocytopenia, Grade 1–2” value [2]?
**A.** 2 (29) patients, n (%)

**Q.** What about the “TEAE Thrombocytopenia, Grade ≥3” value [2] of the same compound?
**A.** 4 (57) patients, n (%)

**Q.** What about the “TEAE Upper respiratory tract infection, Grade 1–2” value [2] of the same compound?
**A.** 0 patients, n (%)

**Q.** And the “TEAE Upper respiratory tract infection, Grade ≥3” value [2]?
**A.** 0 patients, n (%)

**Q.** What about the “TEAE Vomiting, Grade 1–2” value [2] of the same compound?
**A.** 4 (57) patients, n (%)

**Q.** And the “TEAE Vomiting, Grade ≥3” value [2]?
**A.** 1 (14) patients, n (%)

**Q.** What about the “TEAE White blood cell count decreased, Grade 1–2” value [2] of the same compound?
**A.** 0 patients, n (%)

**Q.** And the “TEAE White blood cell count decreased, Grade ≥3” value [2]?
**A.** 2 (29) patients, n (%)

**Q.** What about the “Number of DLTs” value [3] of the same compound?
**A.** no DLTs

**Q.** And the “SRC decision (tolerability)” value [3]?
**A.** not tolerated beyond cycle 1

**Q.** And the “TEAE Abdominal pain, Grade 1–2” value [4]?
**A.** 2 (33) patients, n (%)

**Q.** And the “TEAE Abdominal pain, Grade ≥3” value [4]?
**A.** 0 patients, n (%)

**Q.** And the “TEAE Alanine aminotransferase increased, Grade 1–2” value [4]?
**A.** 1 (17) patients, n (%)

**Q.** What about the “TEAE Alanine aminotransferase increased, Grade ≥3” value [4] of the same compound?
**A.** 0 patients, n (%)

**Q.** And the “TEAE Anemia, Grade 1–2” value [4]?
**A.** 1 (17) patients, n (%)

**Q.** And the “TEAE Anemia, Grade ≥3” value [4]?
**A.** 4 (67) patients, n (%)

**Q.** What about the “TEAE Any AE, Grade 1–2” value [4] of the same compound?
**A.** 1 (17) patients, n (%)

**Q.** And the “TEAE Any AE, Grade ≥3” value [4]?
**A.** 5 (83) patients, n (%)

**Q.** What about the “TEAE Arthralgia, Grade 1–2” value [4] of the same compound?
**A.** 1 (17) patients, n (%)

**Q.** And the “TEAE Arthralgia, Grade ≥3” value [4]?
**A.** 0 patients, n (%)

**Q.** And the “TEAE Aspartate aminotransferase increased, Grade 1–2” value [4]?
**A.** 1 (17) patients, n (%)

**Q.** And the “TEAE Aspartate aminotransferase increased, Grade ≥3” value [4]?
**A.** 0 patients, n (%)
